Experimental data reported in patent US4849410A, “Pseudopterosin and synthetic derivatives thereof” (The Regents of the University of California, priority 1987, dated 1989).

Tests used:
[1] = test system: Arachidonic Acid (A.A.) Induced Topical Inflammation of the Mouse Ear; test: Arachidonic acid induced topical inflammation of the mouse ear; format: in vivo; settings: A.A. 25.0 ug; 50.0 ug/ear
[2] = Side effects and mortality, intraperitoneal administration to mice; format: in vivo; settings: for Mortality: on day after administration
Protocol: Doses up to 50 mg/kg administered intraperitoneally to mice have no effect. […] Mortality at 100 mg/kg=2/10 on day after administration, at 200 mg/kg=2/4 also on day after administration.

[3] = CNS activity and toxicity in the comparative tests; settings: during the anti-inflammatory assay
sea urchin sperm = test: Sperm Motility Assay; format: cell-based; settings: 16 microgram/ml (10^-5 m)
Protocol: Male sea urchins are induced to spawn by injection of 0.5M KCl into the coelomic cavity. Sperm is collected via a pasteur pipette and stored in a test tube on ice. One drop of undiluted sperm is added to 25 ml of filtered fresh seawater, then 1.0 ml volumes of this solution are immediately added to test tubes containing 10 microliter test solution. Aliquots of sperm from each tube are observed microscopically for motility at a time two minutes after addition of sperm to test solution.
(§1) The vheicle or carrier for the compounds used in the inflammatory and analgesic assays was as follows; For the mouse ear inflammatory assay, the vehicle was acetone. Controls received 25 microliters of acetone. Test compounds were applied to the experimental animals in 25 microliter volumes. For the sperm motility and fertilized sea urchin egg assays, the compounds were dissolved in 10 microliters undenatured ethanol.

P388 leukemia = test: Evaluation in mice bearing ip P388 leukemia; format: in vivo, female B6D2F1 mice; settings: for Increase to Lifespan / Median Survival Time / Weight Change Day 5 / Weight Change Day 9: Days 1-5
Protocol: Compound I was also evaluated in mice bearing P388 Leukemia as follows:
Compound I was administered to the mice as a solution by first dissolving it in N,N-dimethylacetamide, adding an equal volume of Cremophor EL and then 8 volumes of water. The drug concentration was such that the desired dose was delivered in a volume of 0.5 ml per mouse. Dilutions from the highest dose in a dose-response study were made by the addition of water so that organic component of the formulation decreased with dose reduction; the drug remained in solution.
10^6 P388 leukemia cells were implanted intraperitoneal in female B6D2F1 mice which were randomized to treatment groups of six animals each. Treatment was initiated 24 hours after tumor implantation and was continued daily for five days (Cisplatin was administered on Days 1 and 5 for the Group 1 mice). Mice were weighted as groups on Days 1, 5 and 9 to provide an indication of drug toxicity. Mice were monitored for survival daily for 45 days, and the median day of death was determined compared to three groups of untreated controls to provide percent increase in lifespan (ILS). ILS values of greater than or equal to 40 percent represent actual reduction in tumor cell burden during the course of treatment and are taken as indications of biologically significant antitumor effect.

[4] = Toxicity of single intraperitoneal doses; format: in vivo, female B6D2F1 mice
Protocol: The toxicity of single intraperitoneal (ip) doses of Compound I in female B6D2F1 mice were evaluated. Doses of up to 150 mg/kg produced no lethality but signs of CNS toxicity were evident at doses greater than or equal to 77 mg/kg.

[5] = test system: Phorbol Myristate Acetate (PMA) Induced Topical Inflammation of the Mouse Ear; test: Mouse Ear Anti-Inflammatory Assay (PMA, topical); format: in vivo; settings: for Ear Weight Mean ± S.E.M.: PMA 1.5 ug
Protocol: a. Mouse Ear Anti-Inflammatory Assay
Test compound and phorbol myristate acetate (PMA) are topically applied simultaneously to the pinnae of the ears of mice. Three hours twenty minutes after application, mice are sacrificed, ears removed and standard sized bores taken. Edema (inflammation) is measured as the difference in weight between control and treated ears.
as §1

[6] = 100 mg/kg and above intraperitoneally

## CC(C)=C[C@H]1C[C@H](C)[C@H]2CC[C@H](C)c3c(O[C@@H]4OC[C@@H](O)[C@H](O)[C@H]4O)c(O)c(C)c1c32 [Compound I, pseudopterosin A]
[1]
  Ear Weight Mean ± S.E.M.: 13.33 ± 0.38 mg
[2]; [6]
  return to normal activity: ≤ 30 min
  side effects: mild excitation and writhing in some animals
[2]; 100 mg/kg
  Mortality: 2/10
[2]; 200 mg/kg
  Mortality: 2/4
[2]; up to 50 mg/kg intraperitoneally
  side effects: no effect
[3]
  CNS stimulation: exhibited the CNS stimulation
Sea urchin sperm
  inhibition of sperm motility: totally inhibits
P388 leukemia; Group 2, 7.9 mg/kg ip
  Increase to Lifespan: 10%
  Median Survival Time: 11 days
  Weight Change Day 5: +1.1 gm
  Weight Change Day 9: +3.6 gm
P388 leukemia; Group 2, 11.9 mg/kg ip
  Increase to Lifespan: 15%
  Median Survival Time: 11.5 days
  Weight Change Day 5: +0.7 gm
  Weight Change Day 9: +2.5 gm
P388 leukemia; Group 2, 17.8 mg/kg ip
  Increase to Lifespan: 15%
  Median Survival Time: 11.5 days
  Weight Change Day 5: 0 gm
  Weight Change Day 9: +2.8 gm
P388 leukemia; Group 2, 26.7 mg/kg ip
  Increase to Lifespan: 25%
  Median Survival Time: 12.5 days
  Weight Change Day 5: -0.7 gm
  Weight Change Day 9: +3.4 gm
P388 leukemia; Group 2, 40 mg/kg ip
  Increase to Lifespan: 30%
  Median Survival Time: 13 days
  Weight Change Day 5: -2.1 gm
  Weight Change Day 9: +2.2 gm
P388 leukemia; Group 2, 60 mg/kg ip
  Increase to Lifespan: 65%
  Median Survival Time: 16.5 days
  Weight Change Day 5: -3.2 gm
  Weight Change Day 9: -0.5 gm
P388 leukemia; Group I, 1.5 mg/kg ip
  Increase to Lifespan: 27%
  Median Survival Time: 14 days
  Weight Change Day 5: +0.1 gm
  Weight Change Day 9: +4.6 gm
P388 leukemia; Group I, 3 mg/kg ip
  Increase to Lifespan: 27%
  Median Survival Time: 14 days
  Weight Change Day 5: +0.4 gm
  Weight Change Day 9: +4.2 gm
P388 leukemia; Group I, 6 mg/kg ip
  Increase to Lifespan: 36%
  Median Survival Time: 15 days
  Weight Change Day 5: +0.7 gm
  Weight Change Day 9: +2.9 gm
P388 leukemia; Group I, 12 mg/kg ip
  Increase to Lifespan: 45%
  Median Survival Time: 16 days
  Weight Change Day 5: -2.6 gm
  Weight Change Day 9: +1.3 gm
P388 leukemia; Group I, 24 mg/kg ip
  Increase to Lifespan: 82%
  Median Survival Time: 20 days
  Weight Change Day 5: +0.4 gm
  Weight Change Day 9: -0.6 gm
P388 leukemia; a daily dose in this range, from weight loss
  maximally tolerated dose: ~60 mg/kg/day
P388 leukemia; mouse, in vivo, ip
  activity in mice bearing intraperitoneal P388 leukemia: demonstrated reproducible activity
P388 leukemia; second group, 60 mg/kg/day
  activity in mice bearing intraperitoneal P388 leukemia: significant activity
P388 leukemia; second group, dose similar to 24 mg/kg/day
  activity in mice bearing intraperitoneal P388 leukemia: ineffective
[4]; single ip dose
  dose at which signs of CNS toxicity were evident: greater than or equal to 77 mg/kg
[4]; single ip doses >= 77 mg/kg
  Symptoms of CNS toxicity: hypersensitivity to external stimuli and shivering
[4]; single ip doses of up to 150 mg/kg
  lethality: no lethality
[5]; 50 microgram
  decrease in edema: 69%
[5]; 6.25 ug/ear
  Ear Weight Mean ± S.E.M.: 16.78 ± 0.91 mg
[5]; 12.5 ug/ear
  Ear Weight Mean ± S.E.M.: 14.99 ± 0.6 mg
[5]; 25.0 ug/ear
  Ear Weight Mean ± S.E.M.: 13.18 ± 0.53 mg
[5]; 50.0 ug/ear
  Ear Weight Mean ± S.E.M.: 12.47 ± 0.46 mg
[5]; 100.0 ug/ear
  Ear Weight Mean ± S.E.M.: 11.70 ± 0.37 mg
[5]; summary
  Anti-inflammatory Activity: Active
